Experimental data taken from patent publication US9663495B2 (YUHAN CORPORATION, priority 2013, dated 2017).

What was measured:
GPR119 [1] = target: T1, GPR119 (Homo sapiens, UniProt Q8TDV5); assay: cAMP Accumulation Assay (GPR119 CRE-bla CHO-K1 cells, LiveBLAzer-FRET B/G); assay type: cell-based; details: (Emax of the test compound/Emax of MBX-2982)x100, 5 hours incubation
T1 construct: host or cells: CHO-K1 (GPR119 CRE-bla, doxycycline-induced)
T1 sequence (Q8TDV5 1-335): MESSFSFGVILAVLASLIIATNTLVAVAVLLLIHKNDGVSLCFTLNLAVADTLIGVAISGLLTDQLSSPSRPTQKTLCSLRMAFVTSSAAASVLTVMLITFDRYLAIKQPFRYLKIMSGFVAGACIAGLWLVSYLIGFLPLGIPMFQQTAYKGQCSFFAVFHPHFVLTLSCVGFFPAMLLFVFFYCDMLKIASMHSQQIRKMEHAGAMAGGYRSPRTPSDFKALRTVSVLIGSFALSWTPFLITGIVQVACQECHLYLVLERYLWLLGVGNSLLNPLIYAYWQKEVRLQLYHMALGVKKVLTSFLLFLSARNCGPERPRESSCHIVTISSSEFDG

GPR119 [2] = target: T1, GPR119; assay: as above; assay type: cell-based; details: for EC50: 5 hours incubation; for Emax (Fold): maximum activity, response ratio versus non-treated control group
Method: 32 μl of an assay medium (DMEM supplemented with GlutaMax™ 99%, dialyzed FBS 1%, non-essential amino acid 1 mM, HEPES 25 mM, penicillin 100 U/ml, and streptomycin 100 μg/ml) was added to each well of a 384 black well plate and then the GPR119 CRE-bla CHO-K1 cells (Invitrogen) were seeded in 1×10^4 cells per well. Doxycycline was dissolved in the assay medium in the concentration of 1 μg/ml. The resulting solution (4 μl) was added to each well, which was then incubated in a 5% CO 2 incubator at 37° C. for about 20 to 24 hours. Each test compounds were diluted with the assay medium to prepare 10 samples, which have concentrations ranging from […], respectively. Each samples (8 μl) was added to each well, which was then incubated in a 5% CO2 incubator at 37° C. for 5 hours. In case of the control group, the well was treated with a solution (8 μl) prepared by diluting dimethyl sulfoxide (DMSO) in the assay medium to 1%. The substrate mixture (8 μl) was added to each well, which was then left under darkness at room temperature for 2 hours. The substrate mixture contains the followings: 1 mM LiveBLAzer™-FRET B/G(CCF4-AM) substrate 6 μl, solution B 60 μl, solution C 904 μl, and solution D 30 μl.
Fluorescence intensity was determined under the wavelength conditions of 400 nm/465 nm (excitation/emission) for the blue channel and 400 nm/535 nm (excitation/emission) for the green channel, with the fluorescence microplate reader (SpectraFluor Plus. TECAN). The net activity of each well was calculated by subtracting the average value of the cell-free control group from the value of the unstimulated (i.e., non-treated) control group or the stimulated (i.e., test compound-treated) group at each wavelength. MBX-2982 (Metabolex) was used as a control drug. The response ratio was calculated by dividing the net signal ratio (465 nm/535 nm) of the control drug or the test compound by the net signal ratio (465 nm/535 nm) of the non-treated control group. The relative ratio (R.R) was calculated by dividing the maximum activity [Emax (fold)] of the test compound (i.e., % activity in comparison with the background) by the maximum activity [Emax (fold)] of the control drug (MBX-2982) [Emax (% RR)=(Emax of the test compound/Emax of MBX-2982)×100]. EC50 (half maximal effective concentration) was calculated using the software for statistical analysis “Prism 5.0 (GraphPad)”, based on the values obtained according to concentrations of the test compounds.

| SMILES | Emax (% RR) (GPR119 [1]) | EC50 (GPR119 [2]) | Emax (Fold) (GPR119 [2]) |
| --- | --- | --- | --- |
| CC(C)n1ncn(-c2ccc(-c3cnc(N4CCC(c5nnc(C(F)(F)F)o5)CC4)c(C#N)c3)cc2F)c1=O [Example 74, 5-(3-fluoro-4-(1-isopropyl-5-oxo-1H-1,2,4-triazol-4(5H)-yl)phenyl)-2-(4-(5-(trifluoromethyl)-1,3,4-oxadiazol-2-yl)piperidin-1-yl)nicotinonitrile] | 104.2 % RR | 5.6 nM | 3.0 Fold |
| CCc1cnc(N2CCN(c3ncc(-c4ccc(-n5cnn(C)c5=O)c(F)c4)cn3)[C@@H](C)C2)nc1 [Example 7, (S)-4-(4-(2-(4-(5-ethylpyrimidin-2-yl)-2-methylpiperazin-1-yl)pyrimidin-5-yl)-2-fluorophenyl)-1-methyl-1H-1,2,4-triazol-5(4H)-one] | 111.5 % RR | 26 nM | 2.5 Fold |
| CCc1cnc(N2CCN(c3ncc(-c4ccc(-n5cnn(CC(C)(C)C#N)c5=O)c(F)c4)cc3C#N)[C@@H](C)C2)nc1 [Example 25, (S)-5-(4-(1-(2-cyano-2-methylpropyl)-5-oxo-1H-1,2,4-triazol-4(5H)-yl)-3-fluorophenyl)-2-(4-(5-ethylpyrimidin-2-yl)-2-methylpiperazin-1-yl)nicotinonitrile] | 116.0 % RR | 2.6 nM | 3.3 Fold |
| CCc1cnc(N2CCN(c3ncc(-c4ccc(-n5cnn(C(C)C)c5=O)c(F)c4)cc3C#N)CC2)nc1 [Example 30, 2-(4-(5-ethylpyrimidin-2-yl)piperazin-1-yl)-5-(3-fluoro-4-(1-isopropyl-5-oxo-1H-1,2,4-triazol-4(5H)-yl)phenyl)nicotinonitrile] | 130.9 % RR | 1.5 nM | 3.8 Fold |
| CCc1cnc(N2CCN(c3ncc(-c4ccc(-n5cnn(C[C@H](O)CO)c5=O)c(F)c4)cc3C#N)CC2)nc1 [Example 36, (S)-5-(4-(1-(2,3-dihydroxypropyl)-5-oxo-1H-1,2,4-triazol-4(5H)-yl)-3-fluorophenyl)-2-(4-(5-ethylpyrimidin-2-yl)piperazin-1-yl)nicotinonitrile] | 118.1 % RR | 13.2 nM | 4.3 Fold |
| CCc1cnc(N2CCN(c3ncc(-c4ccc(-n5cnn(CC#N)c5=O)c(F)c4)cc3C#N)[C@@H](C)C2)nc1 [Example 18, (S)-5-(4-(1-(cyanomethyl)-5-oxo-1H-1,2,4-triazol-4(5H)-yl)-3-fluorophenyl)-2-(4-(5-ethylpyrimidin-2-yl)-2-methylpiperazin-1-yl)nicotinonitrile] | 104.6 % RR | 17 nM | 2.9 Fold |
| CC(C)n1ncn(-c2ccc(-c3cnc(N4CCC(N(C)C(=O)OC(C)(C)C)CC4)c(C#N)c3)cc2F)c1=O [Example 58, tert-butyl 1-(3-cyano-5-(3-fluoro-4-(1-isopropyl-5-oxo-1H-1,2,4-triazol-4(5H)-yl)phenyl)pyridin-2-yl)piperidin-4-yl(methyl)carbamate] | 105.4 % RR | 16 nM | 2.6 Fold |
| C=C(C)OC(=O)N(C)C1CCN(c2ncc(-c3ccc(-n4cnn(C(C)C)c4=O)c(F)c3)cc2C#N)CC1 [Example 59, prop-1-en-2-yl 1-(3-cyano-5-(3-fluoro-4-(1-isopropyl-5-oxo-1H-1,2,4-triazol-4(5H)-yl)phenyl)pyridin-2-yl)piperidin-4-yl(methyl)carbamate] | 100.8 % RR | 31 nM | 2.5 Fold |
| CCc1cnc(N2CCN(c3ncc(-c4ccc(-n5cnn(CC(=O)OC)c5=O)c(F)c4)cc3C#N)[C@@H](C)C2)nc1 [Example 13, (S)-methyl 2-(4-(4-(5-cyano-6-(4-(5-ethylpyrimidin-2-yl)-2-methylpiperazin-1-yl)pyridin-3-yl)-2-fluorophenyl)-5-oxo-4,5-dihydro-1H-1,2,4-triazol-1-yl)acetate] | 102.0 % RR | 114 nM | 2.9 Fold |
| CCc1cnc(N2CCN(c3ncc(-c4ccc(-n5cnn(C)c5=O)c(F)c4)cc3C#N)[C@@H](C)C2)nc1 [Example 9, (S)-2-(4-(5-ethylpyrimidin-2-yl)-2-methylpiperazin-1-yl)-5-(3-fluoro-4-(1-methyl-5-oxo-1H-1,2,4-triazol-4(5H)-yl)phenyl)nicotinonitrile] | 118.2 % RR | 3 nM | 2.8 Fold |
| CC(C)c1noc(C2CCN(c3ncc(-c4ccc(-n5cnn(CN6CCCC6)c5=O)c(F)c4)cc3C#N)CC2)n1 [Example 64, 5-(3-fluoro-4-(5-oxo-1-(pyrrolidin-1-ylmethyl)-1H-1,2,4-triazol-4(5H)-yl)phenyl)-2-(4-(3-isopropyl-1,2,4-oxadiazol-5-yl)piperidin-1-yl)nicotinonitrile] | 130.8 % RR | 2.6 nM | 3.8 Fold |
| CCCn1ncn(-c2ccc(-c3cnc(N4CCC(c5nc(C(C)C)no5)CC4)c(C#N)c3)cc2F)c1=O [Example 62, 5-(3-fluoro-4-(5-oxo-1-propyl-1H-1,2,4-triazol-4(5H)-yl)phenyl)-2-(4-(3-isopropyl-1,2,4-oxadiazol-5-yl)piperidin-1-yl)nicotinonitrile] | 122.7 % RR | 1.3 nM | 3.5 Fold |
| COCn1ncn(-c2ccc(-c3cnc(N4CCN(c5noc(C(C)C)n5)CC4)c(C#N)c3)cc2)c1=O [Example 48, 2-(4-(5-isopropyl-1,2,4-oxadiazol-3-yl)piperazin-1-yl)-5-(4-(1-(methoxymethyl)-5-oxo-1H-1,2,4-triazol-4(5H)-yl)phenyl)nicotinonitrile] | 109.1 % RR | 16 nM | 3.0 Fold |
| CCc1cnc(N2CCN(c3ncc(-c4ccc(-n5cnn(C)c5=O)cc4)cc3C#N)CC2)nc1 [Example 39, 2-(4-(5-ethylpyrimidin-2-yl)piperazin-1-yl)-5-(4-(1-methyl-5-oxo-1H-1,2,4-triazol-4(5H)-yl)phenyl)nicotinonitrile] | 133.6 % RR | 3.8 nM | 3.9 Fold |
| CCOC(=O)n1ncn(-c2ccc(-c3cnc(N4CCN(c5ncc(CC)cn5)C[C@@H]4C)c(C#N)c3)cc2F)c1=O [Example 24, (S)-ethyl 4-(4-(5-cyano-6-(4-(5-ethylpyrimidin-2-yl)-2-methylpiperazin-1-yl)pyridin-3-yl)-2-fluorophenyl)-5-oxo-4,5-dihydro-1H-1,2,4-triazol-1-carboxylate] | 124.6 % RR | 4.5 nM | 3.6 Fold |
| CCc1cnc(N2CCN(c3ncc(-c4ccc(-n5cnn(CN6CCCC6)c5=O)c(F)c4)cc3C#N)[C@@H](C)C2)nc1 [Example 28, (S)-2-(4-(5-ethylpyrimidin-2-yl)-2-methylpiperazin-1-yl)-5-(3-fluoro-4-(5-oxo-1-(pyrrolidin-1-ylmethyl)-1H-1,2,4-triazol-4(5H)-yl)phenyl)nicotinonitrile] | 145.6 % RR | 4 nM | 3.9 Fold |
